Measurements reported in patent US10179770B2, “Quinolines derivatives as novel anticancer agents” (GENOSCIENCE PHARMA, priority 2013, dated 2019).

Tests used:
Assay in all cases: NCI-60 screen (SRB)
Assay type in all cases: cell-based
HOP-92 = HOP-92 (Non-Small Cell Lung)
Experimental: (§1) The human tumor cell lines of the cancer screening panel are grown in RPMI 1640 medium containing 5% fetal bovine serum and 2 mM L-glutamine. For a typical screening experiment, cells are inoculated into 96 well microtiter plates in 100 μL at plating densities ranging from 5,000 to 40,000 cells/well depending on the doubling time of individual cell lines. After cell inoculation, the microtiter plates are incubated at 37° C., 5% CO2, 95% air and 100% relative humidity for 24 h prior to addition of experimental drugs.
(§2) After 24 h, two plates of each cell line are fixed in situ with TCA, to represent a measurement of the cell population for each cell line at the time of drug addition (Tz). Experimental drug is solubilized in dimethyl sulfoxide at 400-fold the desired final maximum test concentration and stored frozen prior to use. At the time of drug addition, an aliquot of frozen concentrate is thawed and diluted to twice the desired final maximum test concentration with complete medium containing 50 μg/ml gentamicin. Additional four, 10-fold or ½ log serial dilutions are made to provide a total of five drug concentrations plus control. Aliquots of 100 μl of these different drug dilutions are added to the appropriate microtiter wells already containing 100 μl of medium, resulting in the required final drug concentrations.
(§3) Following drug addition, the plates are incubated for an additional 48 h at 37° C., 5% CO2, 95% air, and 100% relative humidity. For adherent cells, the assay is terminated by the addition of cold TCA. Cells are fixed in situ by the gentle addition of 50 μl of cold 50% (w/v) TCA (final concentration, 10% TCA) and incubated for 60 minutes at 4° C. The supernatant is discarded, and the plates are washed five times with tap water and air dried. Sulforhodamine B (SRB) solution (100 μl) at 0.4% (w/v) in 1% acetic acid is added to each well, and plates are incubated for 10 minutes at room temperature. After staining, unbound dye is removed by washing five times with 1% acetic acid and the plates are air dried. Bound stain is subsequently solubilized with 10 mM trizma base, and the absorbance is read on an automated plate reader at a wavelength of 515 nm. For suspension cells, the methodology is the same except that the assay is terminated by fixing settled cells at the bottom of the wells by gently adding 50 μl of 80% TCA (final concentration, 16% TCA). Using the seven absorbance measurements [time zero, (Tz), control growth, (C), and test growth in the presence of drug at the five concentration levels (Ti)], the percentage growth is calculated at each of the drug concentrations levels.
(§4) Percentage growth inhibition is calculated as: [(Ti−Tz)/(C−Tz)]×100 for concentrations for which Ti>/=Tz (1) [(Ti−Tz)/Tz]×100 for concentrations for which Ti<Tz (2)
(§5) Growth inhibition of 50% (GI50) is calculated from [(Ti−Tz)/(C−Tz)]×100=50 (3)
(§6) which is the drug concentration resulting in a 50% reduction in the net protein increase (as measured by SRB staining) in control cells during the drug incubation.
(§7) The drug concentration resulting in total growth inhibition (TGI) is calculated from Ti=Tz (4)
(§8) The LC50 (concentration of drug resulting in a 50% reduction in the measured protein at the end of the drug treatment as compared to that at the beginning) indicating a net loss of cells following treatment is calculated from [(Ti−Tz)/Tz]×100=−50 (5)
(§9) Values are calculated for each of these three parameters if the level of activity is reached; however, if the effect is not reached or is exceeded, the value for that parameter is expressed as greater or less than the maximum or minimum concentration tested.

SN12C = SN12C (Renal)
Experimental: as §1, §2, §3, §4, §5, §6, §7, §8, §9

K-562 = K-562 (Leukemia)
Experimental: as §1, §2, §3, §4, §5, §6, §7, §8, §9

IGROVI = IGROVI (Ovarian)
Experimental: as §1, §2, §3, §4, §5, §6, §7, §8, §9

RXF393 = RXF393 (Renal)
Experimental: as §1, §2, §3, §4, §5, §6, §7, §8, §9

NCI-H226 = NCI-H226 (Non-Small Cell Lung)
Experimental: as §1, §2, §3, §4, §5, §6, §7, §8, §9

HOP-62 = HOP-62 (Non-Small Cell Lung)
Experimental: as §1, §2, §3, §4, §5, §6, §7, §8, §9

A549/ATCC = A549/ATCC (Non-Small Cell Lung)
Experimental: as §1, §2, §3, §4, §5, §6, §7, §8, §9

SR = SR (Leukemia)
Experimental: as §1, §2, §3, §4, §5, §6, §7, §8, §9

HCT-116 = HCT-116 (Colon)
Experimental: as §1, §2, §3, §4, §5, §6, §7, §8, §9

SW-620 = SW-620 (Colon)
Experimental: as §1, §2, §3, §4, §5, §6, §7, §8, §9

OVCAR-5 = OVCAR-5 (Ovarian)
Experimental: as §1, §2, §3, §4, §5, §6, §7, §8, §9

MDA-MB-468 = test system: MDA-MB-468
Experimental: as §1, §2, §3, §4, §5, §6, §7, §8, §9

MDA-MB-231/ATCC = MDA-MB-231/ATCC (Breast)
Experimental: as §1, §2, §3, §4, §5, §6, §7, §8, §9

NCI-H522 = NCI-H522 (Non-Small Cell Lung)
Experimental: as §1, §2, §3, §4, §5, §6, §7, §8, §9

HT29 = HT29 (Colon)
Experimental: as §1, §2, §3, §4, §5, §6, §7, §8, §9

CAKI-1 = CAKI-1 (Renal)
Experimental: as §1, §2, §3, §4, §5, §6, §7, §8, §9

[1] = Homo sapiens, read-out: LC50 (the source's name)

For CC(C)(C)NC1CCN(c2cc(-c3ccc(Cl)cc3)nc3ccccc23)CC1.Cl.Cl [XII-4, 2-(4-chloro-phenyl)-4-(4-N-tert-butylamino-piperidin-1-yl)quinoline dihydrochloride], the “Growth percent at 10 μM” value (HOP-92) was “++ (cell growth 40 > % < 60)”, the “Growth percent at 10 μM” value (SN12C) was “++ (cell growth 40 > % < 60)” and the “Growth percent at 10 μM” value (K-562) was “× (cell growth 0 < % > −20)”. The “Growth percent at 10 μM” value (IGROVI) was “++ (cell growth 40 > % < 60)”, the “Growth percent at 10 μM” value (RXF393; 10 μM) was “+++ (cell growth 20 > % < 40)” and the “Growth percent at 10 μM” value (NCI-H226) was “− (cell growth % > 80)”. The “Growth percent at 10 μM” value (HOP-62) was “+ (cell growth 60 > % < 80)”, the “Growth percent at 10 μM” value (A549/ATCC) was “++ (cell growth 40 > % < 60)” and the “Growth percent at 10 μM” value (SR) was “++++ (cell growth 0 > % < 20)”. The “Growth percent at 10 μM” value (HCT-116) was “+++ (cell growth 20 > % < 40)”, the “Growth percent at 10 μM” value (SW-620) was “++++ (cell growth 0 > % < 20)” and the “Growth percent at 10 μM” value (OVCAR-5) was “++ (cell growth 40 > % < 60)”. For the same compound, the “Growth percent at 10 μM” value (MDA-MB-468; MDA-MB-468 (Breast)) was “×× (cell growth −20 < % > −40)”, the “Growth percent at 10 μM” value (MDA-MB-231/ATCC) was “×× (cell growth −20 < % > −40)” and the “Growth percent at 10 μM” value (NCI-H522) was “+ (cell growth 60 > % < 80)”. For the same compound, the “Growth percent at 10 μM” value (HT29) was “× (cell growth 0 < % > −20)” and the “Growth percent at 10 μM” value (CAKI-1) was “+++ (cell growth 20 > % < 40)”.
In the case of CCN(CC)C1CCN(C(C)c2cc(-c3ccccc3)nc3ccccc23)CC1.Cl.Cl (stereo not drawn) [XIX-3, 2-phenyl-4-{1-[4-(N,N-diethylamino)piperidin-1-yl]-eth-1-yl}quinoline dihydrochloride], the TGI (HOP-92) is reported as 17 µM, the “Growth percent at 10 μM” value (HOP-92) is reported as “++ (cell growth 40 > % < 60)” and the GI50 (HOP-92; Homo sapiens) is reported as 3 µM. For the same compound, the CC50 (HOP-92; [1]) was 47 µM, the GI50 (SN12C; Homo sapiens) was 12 µM and the LC50 (concentration giving 50% net cell kill) (SN12C; Homo sapiens) was 26 µM. The TGI (SN12C) was 26 µM, the “Growth percent at 10 μM” value (SN12C) was “+ (cell growth 60 > % < 80)” and the GI50 (K-562; Homo sapiens, K562) was 2 µM. For the same compound, the CC50 (K-562; Homo sapiens, K562, read-out: LC50 (the source's name)) was 15 µM, the TGI (K-562) was 5 µM and the “Growth percent at 10 μM” value (K-562) was “× (cell growth 0 > % > −20)”. It also gave a GI50 (IGROVI; Homo sapiens) of 5 µM, a CC50 (IGROVI; [1]) of 63 µM and a TGI (IGROVI) of 21 µM. The “Growth percent at 10 μM” value (IGROVI) was “++ (cell growth 40 > % < 60)”, the GI50 (RXF393; Homo sapiens, RXF 393) was 4 µM and the CC50 (RXF393; Homo sapiens, RXF 393, read-out: LC50 (the source's name)) was 17 µM. It also gave a TGI (RXF393) of 17 µM, a GI50 (NCI-H226; Homo sapiens) of 19 µM and a CC50 (NCI-H226; [1]) of 74 µM. The TGI (NCI-H226) was 38 µM, the “Growth percent at 10 μM” value (NCI-H226) was “− (cell growth % > 80)” and the TGI (HOP-62) was 22 µM. The “Growth percent at 10 μM” value (HOP-62) was “− (cell growth % > 80)”, the GI50 (HOP-62; Homo sapiens) was 9 µM and the CC50 (HOP-62; [1]) was 52 µM. For the same compound, the TGI (A549/ATCC) was 31 µM, the “Growth percent at 10 μM” value (A549/ATCC) was “+ (cell growth 60 > % < 80)” and the GI50 (A549/ATCC; Homo sapiens) was 15 µM. The CC50 (A549/ATCC; [1]) was 63 µM, the GI50 (SR; Homo sapiens) was 3 µM and the CC50 (SR; [1]) was 49 µM. For the same compound, the TGI (SR) was 7 µM, the “Growth percent at 10 μM” value (SR) was “× (cell growth 0 > % > −20)” and the TGI (HCT-116) was 19 µM. The “Growth percent at 10 μM” value (HCT-116) was “++ (cell growth 40 > % < 60)”, the GI50 (HCT-116; Homo sapiens) was 5 µM and the CC50 (HCT-116; [1]) was 51 µM. The GI50 (SW-620; Homo sapiens) was 4 µM, the CC50 (SW-620; [1]) was 45 µM and the TGI (SW-620) was 17 µM. The “Growth percent at 10 μM” value (SW-620) was “++ (cell growth 40 > % < 60)”, the GI50 (OVCAR-5; Homo sapiens) was 13 µM and the CC50 (OVCAR-5; [1]) was 58 µM. For the same compound, the TGI (OVCAR-5) was 28 µM, the “Growth percent at 10 μM” value (OVCAR-5) was “+ (cell growth 60 > % < 80)” and the CC50 (MDA-MB-468; Homo sapiens, MDA-MB-468, read-out: LC50) was 38 µM. The GI50 (MDA-MB-468; Homo sapiens, MDA-MB-468 (Breast)) was 3 µM, the TGI (MDA-MB-468; MDA-MB-468 (Breast)) was 10 µM and the “Growth percent at 10 μM” value (MDA-MB-468; MDA-MB-468 (Breast)) was “+++ (cell growth 20 > % < 40)”. The GI50 (MDA-MB-231/ATCC; Homo sapiens) was 3 µM, the CC50 (MDA-MB-231/ATCC; [1]) was 47 µM and the TGI (MDA-MB-231/ATCC) was 14 µM. The “Growth percent at 10 μM” value (MDA-MB-231/ATCC) was “++ (cell growth 40 > % < 60)”, the GI50 (NCI-H522; Homo sapiens) was 15 µM and the CC50 (NCI-H522; [1]) was 66 µM. The TGI (NCI-H522) was 32 µM, the “Growth percent at 10 μM” value (NCI-H522) was “+++ (cell growth 20 > % < 40)” and the TGI (HT29) was 7 µM. The “Growth percent at 10 μM” value (HT29) was “++++ (cell growth % < 20)”, the GI50 (HT29; Homo sapiens, HT-29) was 2 µM and the CC50 (HT29; Homo sapiens, HT-29, read-out: LC50 (the source's name)) was 32 µM. For the same compound, the TGI (CAKI-1) was 28 µM, the “Growth percent at 10 μM” value (CAKI-1) was “+ (cell growth 60 > % < 80)” and the GI50 (CAKI-1; Homo sapiens) was 13 µM. It also gave a CC50 (CAKI-1; [1]) of 58 µM.
